Assay [1] concerns Male CF-1 mice. The assay is described as follows: Forced swimming test in mice (behavioral despair). The conditions noted are these: 1 h before test; for reduction in immobility: 4-minute test period. The format is in vivo. An excerpt: Porsolt (1977) proposed a model for screening antidepressants in mice, called the “behavioral despair” test. (See, Porsolt, R D et al. Behavioral despair in mice: A preliminary screening test for antidepressants. Arch Int Pharmacodyn Ther 229; 327-336:1977 and Porsolt, R D et al. Behavioral despair in rats: a new model sensitive to antidepressant treatments, Eur. J. Pharmacol., 47, 379-391, 1978). This test is also called the forced swim test In this test, a mouse is placed in a container of water and swims, apparently trying to escape. The animal then alternates periods of swimming and floating, i.e., remaining immobile. Antidepressants are among those drugs that reduce the periods of immobility. In the present report COMPOUND #7 was tested in the forced swimming procedure in mice to determine whether the compound had any potential antidepressant activity.
Male CF-1 mice (18-22 g) were purchased from Charles River Breeding Laboratories, Kingston, N.Y. Animals were housed in standing wire cages with free access to food and water. Experiments were initiated only after an acclimation period of at least 3 days to the animal room environment which consisted of automatically controlled illumination with a 12-hour light/dark cycle and controlled temperature and relative humidity.
COMPOUND #7 was dissolved in 30% polyethylene glycol 400 in deionized water and administered to animals by oral gavage in a volume of 0.1 ml/10 g body weight.
The method was similar to that described by Porsolt et al. (1977)1 with minor modifications (See, Porsolt R D, Bertin A, Jalfre M. Behavioral despair in mice: A preliminary screening test for antidepressants. Arch Int Pharmacodyn Ther 229; 327-336:1977)
Mice were pre-swum the day before the test for 5 minutes. On the test day, mice were dosed orally with either test compound or vehicle. One hour later each animal was placed in a glass cylinder (1000-ml beaker; height 14 cm, diameter 11.5 cm) containing water up to a height of 9 cm (water temperature at 25° C.). Following a 2-minute pretest, immobility of each mouse was recorded for a 4-minute test period. Immobility was defined as the animal making only those movements to stay afloat, especially combined with lack of movement of its hind legs. Each group consisted of 8 mice.

The test system of assay [2] is Male NMRI mice. Put plainly: Mouse tail suspension test (TST). The format is in vivo. The protocol: The tail suspension test (TST) is an acute test which is predictive of anti-depressant activity of a test compound. (See, Steru, L. et al. Psychopharmacology, 85, 367-370, 1985)
Male NMRI mice (22-26 g; n=12 mice per dose) is given a single dose of vehicle (aqueous solution of 1 equivalent tartaric acid+0.45% NaCl+10% cyclodextrin, i.p.), imipramine (128 mg/kg, p.o. in an aqueous solution of 0.9% NaCl) or COMPOUND #7 (at 1, 3 AND 30 mg/kg, p.o.) 60 min prior to tail suspension. All substances were administered in a volume of […]. In this test, the mice are submitted to an unpleasant and inescapable situation (i.e. hanging by the tail) for 6 min. Once suspended, motor activity diminishes rapidly and the mice become immobile. A compound is considered active as an antidepressant in this model, when there is a reduction in immobility time. Viewpoint video-tracking software is utilized to record immobility time.

For assay [3], the system named is submissive rats. The assay is described as follows: Reduction of Submissive Behavior Model (RSBM) of depression, dominant-submissive rat food competition test. It counts as in vivo, Sprague-Dawley rats. An excerpt:
(§1) In this study, the effects of COMPOUND #7 on dominant or submissive behavior in pairs of rats competing for food are examined. It has been shown that anti-manic drugs, including anticonvulsants, decrease dominance and antidepressant drugs reduce submissiveness. This model uses dominant behavior as a model of mania and submissive behavior as a model of depression. The dominance and submissiveness is defined in a competition test and measured as the relative success of two food-restricted rats to gain access to a feeder. Rats are randomly paired and placed in an apparatus allowing them to compete for a food reward. The dominant-submissive relationship develops over a 2-week period. The submissive or dominant animals in pairs selected after 2 weeks of training were treated orally […] (b.i.d.) with COMPOUND #7 at 3 or 30 mg/kg for 5 weeks. The partner of the drug-treated animal was treated with vehicle.
(§2) The objective of this study was to determine if COMPOUND #7 active in the Reduction of Submissive Behavior Model (RSBM) of depression and the Reduction of Dominant Behavior Model (RDBM) of mania. Measurements were made at two doses (3 and 30 mg/kg) after oral twice a day (b.i.d.) administration. The effect of the drug in the RSBM was compared to the effect of fluoxetine (10 mg/kg) and vehicle (0.5% methylcellulose). The effect of the drug in the RDBM was compared with the effect of lithium (100 mg/kg) and vehicle (0.5% methylcellulose). The endpoints measured were the development of a significant reduction of submissive or dominant behavior and its time of onset.
The DSR developed by two rats competing for food uses the apparatus in FIG. 1. The methodology and equipment are described in several publications; (See: Malatynska E, Goldenberg R, Shuck L, Haque A, Zamecki P, Crites G, Schindler N, Knapp R J. Reduction of submissive behavior in rats: a test for antidepressant drug activity. Pharmacology 2002; 64:8; Malatynska E, Rapp R, Crites G. Dominant behavior measured in a competition test as a model of mania. In: International Behavioral Neuroscience Society Meeting, ed. IBNSCapri, Italy, 2002, p 26; Carpenter L L, Leon Z, Yasmin S, Price L H. Do obese depressed patients respond to topiramate? A retrospective chart review. J Affect Disord 2002; 69:251; McElroy S L, Zarate C A, Cookson J, Suppes T, Huffman R F, Greene P, Ascher J. A 52-week, open-label continuation study of lamotrigine in the treatment of bipolar depression. J Clin Psychiatry 2004; 65:204; Bonnet U. Moclobemide: therapeutic use and clinical studies. CNS Drug Rev 2003; 9:97; Danysz W, Plaznik A, Kostowski W, Malatynska E, Jarbe T U, Hiltunen A J, Archer T. Comparison of desipramine, amitriptyline, zimeldine and alaproclate in six animal models used to investigate antidepressant drugs. Pharmacol Toxicol 1988; 62:42; Knapp R J, Goldenberg R, Shuck C, Cecil A, Watkins J, Miller C, Crites G, Malatynska E. Antidepressant activity of memory-enhancing drugs in the reduction of submissive behavior model. Eur J Pharmacol 2002; 440:27; Kostowski W, Malatynska E, Plaznik A, Dyr W, Danysz W. Comparative studies on antidepressant action of alprazolam in different animal models. Pol J Pharmacol Pharm 1986; 38, 471 and Malatynska E, De Leon I, Allen D, Yamamura H I. Effects of amitriptyline on GABA-stimulated ^36Cl^− uptake in relation to a behavioral model of depression. Brain Res Bull 1995; 37:53) In the experiments described in this report Sprague-Dawley rats weighing 160 to 180 g were used. […]

Assay [4] concerns Male rats of Wistar (Han) strain. Put plainly: Behavioral despair or forced swim test in the rat. It counts as in vivo. As to conditions: 4 hours and 60 minutes before the test, 5 minute test. The source says: The behavioral despair or forced swim test (FST) in rats as in mice (see Example 2) is an acute test of anti-depressant activity. Antidepressant-like compounds are known to be active in this assay (e.g., tricyclics, MAO inhibitors, SSRIs), although activity can vary with mouse strain differences, as would be known to one of skill in the art. (See, Porsolt, R D et al. Behavioral despair in rats: a new model sensitive to antidepressant treatments, Eur. J. Pharmacol., 47, 379-391, 1978) and also (see; Porsolt, R D et al. Behavioral despair in mice: A preliminary screening test for antidepressants. Arch Int Pharmacodyn Ther 229; 327-336:1977)
The assay procedure is as follows. Male rats of Wistar (Han) strain, 185-245 g body weight supplied by Elevage Janvier, 53940 Le Genest-Saint-Isle, France were used. These animals were administered 1, 3 and 30 mg/kg of COMPOUND #7 p.o. 24 hours, 4 hours and 60 minutes before the test. Active control animals were given imipramine 64 mg/kg under the same conditions. […] Imipramine at 64 mg/kg administered under the same experimental conditions decreased the duration of immobility by 44% as compared to vehicle.

Assay [5] has as its system dominant rats. The assay is described as follows: Reduction of Dominant Behavior Model (RDBM) of mania, dominant-submissive rat food competition test. The format is in vivo, Sprague-Dawley rats.
Description: as §1, §2
The DSR developed by two rats competing for food uses the apparatus in FIG. 1. The methodology and equipment are described in several publications; (See: Malatynska E, Goldenberg R, Shuck L, Haque A, Zamecki P, Crites G, Schindler N, Knapp R J. Reduction of submissive behavior in rats: a test for antidepressant drug activity. Pharmacology 2002; 64:8; Malatynska E, Rapp R, Crites G. Dominant behavior measured in a competition test as a model of mania. In: International Behavioral Neuroscience Society Meeting, ed. IBNSCapri, Italy, 2002, p 26; Carpenter L L, Leon Z, Yasmin S, Price L H. Do obese depressed patients respond to topiramate? A retrospective chart review. J Affect Disord 2002; 69:251; McElroy S L, Zarate C A, Cookson J, Suppes T, Huffman R F, Greene P, Ascher J. A 52-week, open-label continuation study of lamotrigine in the treatment of bipolar depression. J Clin Psychiatry 2004; 65:204; Bonnet U. Moclobemide: therapeutic use and clinical studies. CNS Drug Rev 2003; 9:97; Danysz W, Plaznik A, Kostowski W, Malatynska E, Jarbe T U, Hiltunen A J, Archer T. Comparison of desipramine, amitriptyline, zimeldine and alaproclate in six animal models used to investigate antidepressant drugs. […]

The subject of assay [6] is dominant rats. As to conditions: administered to dominant rats, literature; cited from earlier work.
The test system of assay [7] is submissive rats. As to conditions: literature, cited from earlier work.
[8] abbreviates: treatment of the submissive subject for 3 weeks.

We go through nine compounds from patent publication US20080317883A1, “METHODS FOR TREATING DEPRESSION” (priority 2006, published 2008).

Each structure is given as a SMILES string. Like-named read-outs stand apart in the source and are kept apart here.

On to `NC(=O)OC[C@@H](O)c1ccccc1Cl` [COMPOUND #7], for which the reduction in immobility in assay [1] (1 mg/kg oral) came out at 25%; in assay [1] (3 mg/kg oral) it was 28%; in assay [1] (10 mg/kg oral), 43%. For the same compound, the “reduction in immobility (significance)” value in assay [1] (17.3 mg/kg oral) and in assay [1] (30 mg/kg oral) was “not significant” each time. The “effect on duration of immobility” value in assay [2] (1, 3 and 30 mg/kg p.o. 60 minutes before the test) is on record as “did not affect the duration of immobility”; in assay [4] (1, 3 and 30 mg/kg p.o. 24 hours), “did not affect the duration of immobility”. The “effect on submissive rat behavior (time spent on feeder)” value in assay [3] (3 mg/kg b.i.d. p.o. for 5 weeks, submissive rat treated, partner vehicle) is listed as “did not have any effect”. The “onset of increased competitiveness of submissive rats (treatment time)” value in assay [3] (30 mg/kg b.i.d. p.o.) came to 1 week. In assay [3] (30 mg/kg b.i.d. p.o. for 5 weeks, vs vehicle-treated submissive rats), the “effect on competitiveness of submissive rat (time spent on feeder, dominance level)” value is “significantly increased competitiveness”. In addition, the “onset of significant decrease of dominant rat performance (treatment time)” value in assay [5] (3 mg/kg b.i.d. p.o.) is given as 3 weeks. Besides, in assay [5] (3 mg/kg b.i.d. p.o. for 5 weeks, dominant rat treated, partner vehicle), the “effect on performance of dominant rats (time spent on feeder)” value was “decreased the performance of dominant rats”. Further, the “onset of increased competitiveness of dominant rats (treatment time)” value in assay [5] (30 mg/kg b.i.d. p.o.) is 2 weeks. In addition, the “effect on competitiveness of dominant rats” value in assay [5] (30 mg/kg b.i.d. p.o. for 5 weeks, vs vehicle treated dominant rats) is “significantly increased the competitiveness”.
For `CC(N)Cc1ccccc1` (stereo not shown) [amphetamine, reference compound], the “effect on submissive behavior” value in assay [3] (treatment of submissive rats, psychostimulant, unpublished observation) is recorded as “ineffective”.
In the case of `NC(=O)N1c2ccccc2C=Cc2ccccc21` [carbamazepine], the “effect on competitive behavior of dominant rats” value (from here on “effect on competitive behavior”) in assay [6] was “significantly reduced competitive behavior”.
In the case of `Clc1cccc(Cl)c1N=C1NCCN1` [clonidine], the “effect on competitive behavior” value in assay [6] is “significantly reduced competitive behavior”.
For `CNCCCN1c2ccccc2CCc2ccccc21` [desipramine], the “effect on submissive behavior” value in assay [7] (setting [8]) is listed as “reduced submissive behavior”.
Regarding `CN1C(=O)CN=C(c2ccccc2)c2cc(Cl)ccc21` [diazepam], the “effect on submissive behavior” value in assay [7] (treatment of submissive rats, anxiolytic) is given as “ineffective”.
In the case of `CNCCC(Oc1ccc(C(F)(F)F)cc1)c1ccccc1` (stereo not shown) [fluoxetine, reference compound], in assay [3] (10 mg/kg i.p. once a day, previous experimental set), the “onset of significant effect in submissive rats (treatment time)” value stood at 3 weeks. For the same compound, the “effect on submissive behavior” value in assay [7] (setting [8]) is recorded as “reduced submissive behavior”.
In the case of `CN(C)CCCN1c2ccccc2CCc2ccccc21` [imipramine, reference compound], in assay [2] (128 mg/kg p.o. 60 minutes before the test), the “decrease of duration of immobility as compared with control” value is given as −69%. Further, the “decrease of duration of immobility as compared to vehicle” value in assay [4] (64 mg/kg p.o. 24 hours) was found to be 44%. For the same compound, the “effect on submissive behavior” value in assay [7] (setting [8]) was “reduced submissive behavior”.
Take `CCCC(CCC)C(=O)[O-].[Na+]` [sodium valproate]: in assay [6], the “effect on competitive behavior” value is listed as “significantly reduced competitive behavior”.
